In the supplement of paper PMC11451515:

What was measured:
Assay in all cases: AUC of viability dose-response curve (% viability x log10 dose units); higher = less sensitive
Conditions in all cases: 48 h
NOMO1 = system: NOMO1
Outline: (§1)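 Leukemia cells adapted to each medium were seeded in 1536-well plates (500 or 1000 cells/well) and given library compounds in DMSO for 48 h at 37°C. The 11 threefold doses spanned 47 μM to 0.79 nM, and CellTiter-Glo One luminescence was normalised per plate to DMSO and cell-free wells before four-parameter log-logistic fitting on log10 dose. Area under the curve was integrated with the trapezoidal rule, scaling curves above full viability and removing curves that failed quality control.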

P12-Ichikawa = system: P12-Ichikawa
Outline: as §1

SEM cells = system: SEM cells
Outline: as §1

[1] = RPMI 5 mM glucose + 10% dialyzed FBS

| Structure (SMILES) | AUC of viability dose-response curve (NOMO1; HPLM + 10% dialyzed FBS) | AUC of viability dose-response curve (NOMO1; RPMI 5 mM glucose + 10% FBS) | AUC of viability dose-response curve (NOMO1; [1]) | AUC of viability dose-response curve (P12-Ichikawa; HPLM + 10% dialyzed FBS) | AUC of viability dose-response curve (P12-Ichikawa; RPMI 5 mM glucose + 10% FBS) | AUC of viability dose-response curve (P12-Ichikawa; [1]) | AUC of viability dose-response curve (SEM cells; HPLM + 10% dialyzed FBS) | AUC of viability dose-response curve (SEM cells; RPMI 5 mM glucose + 10% FBS) | AUC of viability dose-response curve (SEM cells; [1]) |
| --- | --- | --- | --- | --- | --- | --- | --- | --- | --- |
| OC(CCN1CCCCC1)(C2CC\3CC2\C=C3)C4=CC=CC=C4 (configuration not stated) | 465 | 475 | 453 | 463 | 470 | 455 | 442 | 440 | 439 |
| O=C(C[C@@H]1C/C=C\CCC(=O)O[C@H](c2ccccc2)CNC1=O)NCc1ccc(Cl)cc1 | 473 | 471 | 465 | 452 | 447 | 457 | 437 | 415 | 436 |
| OCCNC1CCCc2c1[nH]c1ccc(-c3ccccc3)cc21 (configuration not stated) | 448 | 454 | 453 | 444 | 441 | 446 | 409 | 413 | 416 |
| CC(C)C(=O)Nc1ncc(-c2cc(C(F)F)nn2-c2c(Cl)cccc2Cl)s1 | 468 | 472 | 460 | 465 | 460 | 463 | 458 | 465 | 463 |
| Cc1cc(-c2nnc3n2CCCCC3)c(C)n1-c1ccccc1 | 464 | 473 | 470 | 464 | 462 | 470 | 470 | 424 | 472 |
| O=[S+]([O-])(CCSSCC[S+](=O)([O-])[O][Na])[O][Na] | 432 | 428 | 450 | 461 | 451 | 472 | 423 | 457 | 438 |
| COc1cc(Nc2ncc(F)c(Nc3ccc4c(n3)N(COP(=O)(O)O)C(=O)C(C)(C)O4)n2)cc(OC)c1OC | 472 | 453 | 438 | 470 | 456 | 457 | 287 | 292 | 245 |
| COc1ccc(CC2c3cc(OC)c(OC)cc3CC[N+]2(C)CCC(=O)OCCCCCOC(=O)CC[N+]2(C)CCc3cc(OC)c(OC)cc3C2Cc2ccc(OC)c(OC)c2)cc1OC (configuration not stated) | 406 | 390 | 375 | 439 | 437 | 427 | 412 | 394 | 401 |
| NC(=O)c1cnc(-c2ccc(C3(N)CCC3)cc2)c(-c2ccccc2)c1 | 428 | 468 | 460 | 428 | 448 | 432 | 400 | 396 | 394 |
| CN(C)CC[C@H](CSc1ccccc1)Nc1ccc([S+](=O)([O-])NC(=O)c2ccc(N3CCN(Cc4ccccc4-c4ccc(Cl)cc4)CC3)cc2)cc1[N+](=O)[O-] | 363 | 388 | 324 | 321 | 354 | 338 | 195 | 218 | 191 |
| CC(C[N+](C)(C)C)OC(N)=O (configuration not stated) | 462 | 456 | 465 | 469 | 456 | 468 | 462 | 456 | 477 |
| CCCC1=N[N](C)C2=C1\N=C(/NC2=O)C3=CC(=CC=C3OCC)[S+]([O-])(=O)N4CCN(C)CC4 | 400 | 385 | 403 | 407 | 385 | 381 | 349 | 356 | 364 |
| C[C@]12CC[C@@H]3c4ccc(O)cc4CC[C@H]3[C@@H]1CC[C@@H]2O | 435 | 453 | 450 | 446 | 455 | 440 | 441 | 434 | 431 |
| NC/1=N/C(=O)N(C[C@@H](CO)OC[P](O)(O)=O)/C=C1 | 421 | 460 | 475 | 458 | 443 | 460 | 455 | 466 | 439 |
| Cc1cccc(N(C)C(=S)Oc2ccc3ccccc3c2)c1 | 460 | 470 | 469 | 469 | 466 | 471 | 445 | 470 | 476 |
| COc1cc(NC(=O)c2ccc(-c3ccc(Cl)cc3)o2)cc(OC)c1 | 412 | 432 | 418 | 471 | 472 | 472 | 457 | 465 | 463 |
| CC(=O)Oc1cc2c(s1)CCN(C(C(=O)C1CC1)c1ccccc1F)C2.Cl (configuration not stated) | 386 | 396 | 396 | 468 | 455 | 452 | 466 | 431 | 453 |

| Structure (SMILES) | AUC of viability dose-response curve (NOMO1; HPLM + 10% dialyzed FBS) | AUC of viability dose-response curve (NOMO1; RPMI 5 mM glucose + 10% FBS) | AUC of viability dose-response curve (NOMO1; [1]) | AUC of viability dose-response curve (P12-Ichikawa; HPLM + 10% dialyzed FBS) | AUC of viability dose-response curve (P12-Ichikawa; RPMI 5 mM glucose + 10% FBS) | AUC of viability dose-response curve (P12-Ichikawa; [1]) | AUC of viability dose-response curve (SEM cells; HPLM + 10% dialyzed FBS) | AUC of viability dose-response curve (SEM cells; RPMI 5 mM glucose + 10% FBS) | AUC of viability dose-response curve (SEM cells; [1]) |
| --- | --- | --- | --- | --- | --- | --- | --- | --- | --- |
| CCC[C@@H](C=O)NC(=O)[C@H](CC(C)C)NC(=O)[C@H](CC(C)C)NC(=O)OCc1ccccc1 | 348 | 334 | 359 | 366 | 359 | 367 | 356 | 296 | 337 |
| NC1CCC(Nc2nc(Nc3ccc(C(=O)N4CCCCC4)cc3)c3ncn(-c4cccc(F)c4)c3n2)CC1 (configuration not stated) | 437 | 457 | 470 | 429 | 459 | 439 | 436 | 435 | 426 |
| CCCCCCCCOc1ccccc1C(=O)Nc1ccc(C(=O)OCC[N+](C)(CC)CC)cc1 | 446 | 401 | 413 | 437 | 444 | 408 | 435 | 414 | 460 |
| CCNC(=O)Nc1ccc(-c2nc3c(c(N4CCOC[C@@H]4C)n2)CCN(C2COC2)C3)cc1 | 352 | 407 | 380 | 370 | 358 | 356 | 366 | 353 | 378 |
| O=C(NCCO[N+](=O)[O-])c1cccnc1 | 463 | 472 | 471 | 471 | 474 | 475 | 461 | 455 | 461 |
| NCCCC(O)(P(=O)(O)O)P(=O)(O)O.O.O.O.[Na+] | 416 | 439 | 456 | 395 | 421 | 398 | 402 | 366 | 382 |
| Nc1nc(Nc2ccc([S+](N)(=O)[O-])cc2)nn1C(=O)c1c(F)cccc1F | 437 | 410 | 402 | 455 | 435 | 439 | 397 | 407 | 399 |
| OC1=CC2=C(C(=O)\C=C(/O2)C3=CC=CC=C3)C(=C1O)O | 441 | 431 | 441 | 391 | 413 | 418 | 407 | 379 | 402 |
| CCCNCC(O)COc1ccccc1C(=O)CCc1ccccc1 (configuration not stated) | 457 | 391 | 473 | 450 | 452 | 458 | 438 | 444 | 432 |
| C[N]1N=CC2=C1C=C(C(=C2)OC3=CC=C(NC(=O)\C4=C\C=C(\C)N(C4=O)C5=CC=C(F)C=C5)C=C3F)C6=C[NH]N=C6 | 401 | 410 | 413 | 396 | 397 | 404 | 268 | 266 | 255 |
| CCCOc1ccc2[nH]c(NC(=O)OC)nc2c1 | 286 | 259 | 273 | 226 | 217 | 257 | 240 | 169 | 199 |
| N#CC1(c2ccc(NC(=O)c3cccnc3NCc3ccncc3)cc2)CCCC1 | 442 | 475 | 463 | 437 | 461 | 435 | 442 | 431 | 412 |
| C[C@H]1[C@H](O)O[C@@H]2O[C@@]3(C)CC[C@H]4[C@H](C)CC[C@@H]1[C@@]24OO3 | 321 | 316 | 341 | 386 | 340 | 333 | 374 | 348 | 324 |
| CCCC(CCC)C(=O)[O-] | 448 | 469 | 453 | 468 | 472 | 476 | 461 | 442 | 468 |
| Clc1ccccc1C(c1ccccc1)(c1ccccc1)n1cccn1 | 454 | 445 | 457 | 470 | 462 | 470 | 467 | 456 | 425 |
| CN1C2=CC(=O)/C(=N/NC(N)=O)C=C2CC1S(=O)(=O)[O-].[Na+] (configuration not stated) | 454 | 462 | 461 | 475 | 472 | 459 | 455 | 449 | 447 |
